Data taken from patent US7195752B2, “Surfactant compounds and uses thereof” (Glaxo Group Limited, priority 2001, dated 2007).

Tests used:
[1] = Content uniformity by dose through use testing of salmeterol xinafoate HFA 134a inhalers; type: physicochemical; conditions: 10% w/w surfactant
Procedure: (§1) Salmeterol xinafoate formulations in HFA 134a, of strength 25 μg per actuation, and 10% w/w (relative to drug) of the relevant surfactant compound of formula (I) were prepared using salmeterol xinafoate (5.8 mg), HFA 134a (12 g) and the relevant compound (0.58 mg). The control was prepared without the addition of a surfactant.
The content uniformity of the formulation, the preparation of which is described above, was assessed by dose through use testing. Testing was performed on 10 cans/inhalers at “beginning of use” (BoU) and “end of use” (EoU). After each inhaler had been primed (4 shots fired to waste), actuations 1 and 2 (BoU) were collected. The next 116 actuations of each inhaler were then fired to waste using an automated method and actuations 119 and 120 (EoU) collected.
The assesment of content uniformity was performed intially (following sample preparation). The results are quoted in Table 2 as the mean of the two BoU actuations for 10 inhalers (1+2 for 10 inhalers) and the mean of two EoU actuations for the said 10 inhalers (119+120 for the same 10 inhalers) together with the percentage relative standard deviation (% RSD).

[2] = Particle size by image analysis (Galai CIS-100) of salmeterol xinafoate HFA 134a suspension; type: physicochemical; conditions: salmeterol xinafoate 25 μg per actuation in HFA 134a, 10% w/w (relative to drug) surfactant; mean of 4 determinations
Procedure: as §1
In this measurement, particle size is represented as the equivalent diameter of a circle of equal area to the object. The mean is the average of 4 determinations. The particle size measurement was obtained by transferring the suspensions to a presurised cell, and video-imaging the sample under shear via a microscope objective.
The equivalent diameter is defined as the diameter of a circle of equal area to the object.
The mean equivalent diameter can be weighted by number, length or volume. e.g. For three particles with equivalent diameters of x, y and z: […]

Q: With `O=C(O)COCCCCCCC(F)(F)C(F)(F)F` [Example 5, [(7,7,8,8,8-Pentafluorooctyl)oxy]acetic acid] as the compound, how does the “rise in dose from beginning to end of use” value ([1]; EoU minus BoU dose, 10 inhalers, salmeterol xinafoate in HFA 134a) read?
A: The value was 1.8 µg.

Q: And the BoU dose ([1]; beginning of use, mean of actuations 1+2 for 10 inhalers, salmeterol xinafoate 25 μg per actuation in HFA 134a, initial)?
A: The BoU dose was 19.0 µg.

Q: What about the EoU dose ([1]; end of use, mean of actuations 119+120 for 10 inhalers, salmeterol xinafoate 25 μg per actuation in HFA 134a, initial) of the same compound?
A: Its EoU dose is 21.8 µg.

Q: What about the “Mean Length weighted diameter” value [2] of the same compound?
A: Its value is 13.8 μm.
